Measurements taken from EP1724268A1, “COMPOUND HAVING TGF-BETA INHIBITORY ACTIVITY AND PHARMACEUTICAL COMPOSITION CONTAINING SAME” (KIRIN BEER KABUSHIKI KAISHA, priority 2004, dated 2005).
Read-outs that look alike come from different tables or passages of the source.

Test system: TGFβ signal
Assay: TGFβ signal inhibitory activity, (SBE)4-Luc reporter in A549 cells (Test Examples 1A and 1B)
Format: cell-based, human
Settings: Homo sapiens, A549, read-out: TGFβ inhibition rate, %; for inhibition at 1 µM: test compound 1 µM
Description: Test Example 1A: TGFβ signal inhibitory activity (in vitro test) The compounds according to the present invention was evaluated for TGFβ signal inhibitory activity according to the method described in J. Boil .Chem., 273, 21145-21152 (1998). Specifically, a plasmid having four tandem binding sequences of Smad3, a TGF-beta signal transducer, to the upstream of a luciferases gene were used as a reporter plasmid ((SBE)4-Luc) to detect TGF-beta signal, This reporter gene was introduced into human pulmonary carcinoma epithelial cells (A549) (available from ATCC) to establish a stable cell line. A test compound and TGFβ-1 (2 ng/ ml) were added to the cells, and the mixture was cultured for 4 hr. In this case, the compounds according to the present invention synthesized in the Examples were used as the test compound. After the culture, the luciferase activity of the cells were measured by chemiluminescence (Steady Glo (trademark) luciferase assay system, available from Promega). Likewise, the luciferase activity was measured as a control against the culture of cells with the addition of TGFβ only and the culture of cells without the addition of both TGFβ and the test compound.
The TGFβ inhibition (%) was calculated by the following equation, based on the measurement results. TGFβ inhibition(%) = (A-B)/(A-C) × 100 [formula] wherein • A: luciferase activity with the addition of TGFβ1 and without the addition of test compound (relative luciferase unit), • B: luciferase activity with the addition of both TGFβ1 and test compound (relative luciferase unit), and • C: luciferase activity without the addition of both TGFβ1 and test compound (relative luciferase unit).
The test was carried out for each of test compound at the concentrations of 3 µM and 10 µM. For certain test compounds, the test was further carried out for test compound at the concentration of 1 µM.
For the compounds of Reference Examples, the TGFβ signal inhibitory activity was evaluated in the same manner as in Test Example 1A.

[1] = 3 µM, compounds of Reference Examples (Test Example 1B)
[2] = 10 µM, compounds of Reference Examples (Test Example 1B)
[3] = test compound 3 µM, Reference Examples, Table 1B
[4] = test compound 10 µM, Reference Examples, Table 1B
[5] = test compound 3 µM, TGFβ-1 2 ng/ml, 4 hr, Table 1A
[6] = test compound 10 µM, TGFβ-1 2 ng/ml, 4 hr, Table 1A

SMILES	inhibition at 3 µM [1]	inhibition at 10 µM [2]	also measured
COc1cc2nccc(Oc3cc4cnccc4nc3C)c2cc1OC [r311]	53%	90%	
COc1cc2nccc(Oc3cc(C)c(C)nc3-c3cccnc3)c2cc1OC [Compound r270]	100%		
COc1cc2nccc(Oc3cc(C)c(C)nc3-c3ccc(C)cn3)c2cc1OC [Compound r272]	98%	100%	
COc1cc2c(Oc3cc(C)c(C)nc3-c3ccccn3)ccnc2cc1OCC(O)CO (stereo not shown) [Compound r342]	89%		
COc1cc2nccc(Oc3ccc(C)nc3C(C)=O)c2cc1OC [Compound r117, 1-{[3-(6,7-Dimethoxy-4-quinolyl)oxy]-6-methyl-2-pyridyl}-1-ethanone]			inhibition at 3 µM [3]: 84%; inhibition at 10 µM [4]: 98%
Cc1cc(Oc2ccnc3cc(-c4ccccc4)sc23)c(-c2ccccn2)nc1C [Compound 29, 5,6-Dimethyl-3-(2-phenyl-thieno[3,2-b]pyridin-7-yloxy)-[2,2']bipyridine]			inhibition at 1 µM (TGFβ-1 2 ng/ml, 4 hr, Table 1A): 89%; inhibition at 3 µM [5]: 100%
CCOC(=O)c1ccc(Cl)cc1Oc1ccnc2cc(OC)c(OC)cc12 [Compound r81]			inhibition at 3 µM [3]: 91%; inhibition at 10 µM [4]: 100%
COc1cc2c(Oc3cc4cccnc4nc3C)ccnc2cc1OCCN1CCCC(O)C1 (stereo not shown) [Compound r399]	99%	100%	
COc1cc2c(Oc3ccc(C)cc3C(=O)c3ccccc3)ccnc2cc1OCCNCCO [r124]			inhibition at 3 µM [3]: 99%; inhibition at 10 µM [4]: 100%
COc1cc2c(Oc3cc4cnccc4nc3C)ccnc2cc1OCC(CO)CO [r409]	41%	88%	
COc1cc2c(Oc3cc4cccnc4nc3C)ccnc2cc1OCCCO [Compound r402]	90%	100%	
COc1cc2nccc(Oc3ccc(Cl)cc3C(=O)Nc3ccc(Cl)c(Cl)c3)c2cc1OC [Compound r107]			inhibition at 3 µM [3]: 0%; inhibition at 10 µM [4]: 82%
COc1cc2nccc(Oc3cc4ccccc4nc3-c3cccc(CO)c3)c2cc1OC [Compound r284, {3-[3-(6,7-Dimethoxy-quinolin-4-yloxy)-quinolin-2-yl]-phenyl}-methanol]	96%	100%	
COC(=O)c1cc2c(Oc3cc4cccnc4nc3-c3ccccc3)ccnc2cc1Cl [Compound 148, Methyl 7-chloro-4-(2-phenyl-[1,8]naphthyridin-3-yloxy)-quinoline-6-carboxylate]			inhibition at 3 µM [5]: 58%; inhibition at 10 µM [6]: 98%
COc1cc2c(Oc3cc4cnccc4nc3C)ccnc2cc1OCC(O)CO (stereo not shown) [Compound r408]	38%	79%	
COc1cc2nccc(Oc3ccc(C)nc3-c3cccc(N)c3)c2cc1OC [Compound r235]	100%	100%	
Cc1cc(Oc2ccnc3ccc(C(F)(F)F)cc23)c(-c2ccccn2)nc1C [Compound 3, 5,6-Dimethyl-3-(6-trifluoromethyl-quinolin-4-yloxy)-[2,2']bipyridine]			inhibition at 1 µM (TGFβ-1 2 ng/ml, 4 hr, Table 1A): 79%; inhibition at 3 µM [5]: 99%
COc1cc(OC)c(C(C)=O)c(Oc2ccnc3cc(OC)c(OC)cc23)c1 [r40]			inhibition at 3 µM [3]: 12%; inhibition at 10 µM [4]: 83%
CCOC(=O)c1cc2cc(Oc3ccnc4cc(OC)c(OC)cc34)ccc2[nH]1 [Compound r22]			inhibition at 3 µM [3]: 11%; inhibition at 10 µM [4]: 81%
COc1cc2nccc(Oc3ccc(-n4ccnc4)cc3I)c2cc1OC [r171]	11%	76%	
COc1cc2c(Oc3cc(C)c(C)nc3-c3cccnc3)ccnc2cc1O [Compound r345]	61%	93%	
COc1cc2c(Oc3cc(C)c(C)nc3-c3cccc(C)n3)ccnc2cc1O [Compound r443]	60%	97%	
COc1cc2nccc(Oc3ccc(C)nc3-c3cccc(C(C)=O)c3)c2cc1OC [Compound r232]	66%	79%	
COc1cc2c(Oc3cc4ccccc4nc3C)ccnc2cc1OCCN1CCCC(C(N)=O)C1 (stereo not shown) [Compound r360]	100%	100%	

SMILES	inhibition at 3 µM [1]	inhibition at 10 µM [2]	also measured
COc1cc2nccc(Oc3cc(C)c(C)nc3-c3ccccn3)c2cc1F [Compound 110, 3-(6-Fluoro-7-methoxy-quinolin-4-yloxy)-5,6-dimethyl-[2,2']bipyridine]			inhibition at 3 µM [5]: 100%; inhibition at 10 µM [6]: 100%
COc1cc2nccc(Oc3cc4cccnc4nc3-c3ccccc3)c2cc1C(N)=O [Compound 66, 7-Methoxy-4-(2-phenyl-[1,8]naphthyridin-3-yloxy)-quinoline-6-carboxylic acid amide]			inhibition at 1 µM (TGFβ-1 2 ng/ml, 4 hr, Table 1A): 97%; inhibition at 3 µM [5]: 100%
COc1cc2c(Oc3ccc(C)nc3-c3nccs3)ccnc2cc1OCC(CO)CO [Compound r330]	100%	100%	
Cc1cc(Oc2ccnc3ccc(F)cc23)c(-c2ccccn2)nc1C [Compound 103, 3-(6-Fluoro-quinolin-4-yloxy)-5,6-dimethyl-[2,2']bipyridine]			inhibition at 3 µM [5]: 99%; inhibition at 10 µM [6]: 100%
COc1cc2nccc(Oc3ccc(C)nc3-c3cncnc3)c2cc1OC [Compound r265]	45%	85%	
COc1cc2nccc(Oc3cc(C)nc4ccccc34)c2cc1OC [Compound r309]	41%	79%	
COc1cc2nccc(Oc3cc(C)nc4ccc(F)cc34)c2cc1OC [Compound r308]	21%	56%	
COc1cc2nccc(Oc3cc4cnccc4nc3-c3ccccc3)c2cc1OC [Compound 93, 3-(6,7-Dimethoxy-quinolin-4-yloxy)-2-phenyl-[1,6]naphthyridine]			inhibition at 3 µM [5]: 97%; inhibition at 10 µM [6]: 100%
CCOC(=O)C(Oc1cc2nccc(Oc3cc4ccccc4nc3C)c2cc1OC)C(=O)OCC [Compound r373]	48%	86%	
CCc1ccc(Oc2ccnc3ccc(OCCOC(=O)C(C)(C)CC)cc23)c(-c2ncccn2)n1 [Compound 224, 2-[4-(6-Ethyl-2-pyrimidin-2-yl-pyridin-3-yloxy)-quinolin-6-yloxy]-ethyl 2,2-dimethyl-butanoate]			inhibition at 3 µM [5]: 95%; inhibition at 10 µM [6]: 100%
CCOc1cccc(-c2nc(C)ccc2Oc2ccnc3cc(OC)c(OC)cc23)c1 [Compound r239]	83%	100%	
COc1cc2nccc(Oc3cc4ccccc4nc3CCC(C)C)c2cc1OC [r439]	43%	95%	
COc1cc2c(Oc3cc(C)c(C)nc3-c3nc(C)c(C)s3)ccnc2cc1OCc1ccccc1 [Compound r454]	41%	75%	
Cc1cc(Oc2ncnc3ccc(Cl)cc23)c(-c2ccccn2)nc1C [Compound 24, 6-Chloro-4-(5,6-dimethyl-[2,2']bipyridin-3-yloxy)-quinazoline]			inhibition at 3 µM [5]: 90%; inhibition at 10 µM [6]: 99%
Cc1cc(Oc2ccnc3ccc(Br)cc23)c(-c2ccccn2)nc1C [Compound 2, 3-(6-Bromo-quinolin-4-yloxy)-5,6-dimethyl-[2,2']bipyridine]			inhibition at 3 µM [5]: 100%; inhibition at 10 µM [6]: 100%
COc1cc2nccc(Oc3ccc(C)cc3C(=O)C3CCCC3)c2cc1OC [r58]			inhibition at 3 µM [3]: 90%; inhibition at 10 µM [4]: 100%
COc1cc2c(Oc3ccc(C)cc3C(=O)c3ccccc3)ccnc2cc1OCCCN1CCC(CO)CC1 [r135]			inhibition at 3 µM [3]: 100%; inhibition at 10 µM [4]: 100%
Cc1cc(Oc2ncnc3sc(C)c(C)c23)c(-c2ccccn2)nc1C [Compound 35, 3-(5,6-Dimethyl-thieno[2,3-d]pyrimidin-4-yloxy)-5,6-dimethyl-[2,2']bipyridine]			inhibition at 3 µM [5]: 95%; inhibition at 10 µM [6]: 100%
C=C(C)C(=O)Oc1ccc(C(=O)c2ccccc2)c(Oc2ccnc3cc(OC)c(OC)cc23)c1 [Compound r67]			inhibition at 3 µM [3]: 4%; inhibition at 10 µM [4]: 93%
COc1ccc(Oc2ccnc3cc(OC)c(OC)cc23)c(C=O)c1 [Compound r26]			inhibition at 3 µM [3]: 20%; inhibition at 10 µM [4]: 73%
COc1cc2nccc(Oc3cc4cccnc4nc3C(C)(C)C)c2cc1OC [r426]	100%		
COc1cc2nccc(Oc3c(C)cc4ncccc4c3Cl)c2cc1OC [r302]	30%	90%	
COc1cc2c(Oc3ccc(C)cc3C(=O)c3ccccc3)ccnc2cc1OCCCn1ccnc1 [r140]			inhibition at 3 µM [3]: 85%; inhibition at 10 µM [4]: 100%
